Here are results for ten compounds from patent US8722674B2, “1,3,5-triazine-2,4,6-triamine compound or pharmaceutical acceptable salt thereof, and pharmaceutical composition comprising the same” (Hanall Biopharma Co., Ltd., priority 2007, dated 2014).

The subject of series [1] is HepG2 cells. The experiment in a line: Measurement of triglyceride (Amplex red fluorescence). Particulars: Homo sapiens, 24 h treatment, lower is better, read-out: triglyceride synthesis ability, % control. It counts as cell-based. The procedure: (§1) Metformin that is widely used in type 2 diabetic patients inhibits the formation of glucose, the synthesis of cholesterol and triglyceride in liver cells and promote the absorption of glucose from blood vessels in the muscle cells. […] In the case of the ability to form cholesterol, triglyceride and glucose, the lower the numerical value, the better the effect. Numerical values for a control group become reference values.
(§2) As a hepatic cell model, HepG2 cells were cultured in 1% serum-containing media for 24 hours, and then treated with each of the compounds for 24 hours. Then, the cells were disrupted with lysis buffer (0.1M potassium phosphate, pH 7.4, 0.05 M NaCl, 5 mM cholic acid, 0.1% Triton X-100). To the disrupted cells, the same volume of a reaction solution (0.76 U/ml glycerol kinase, 151333 U/ml peroxidase, 22.2 U/ml glycerol oxidizing agent, and 300 μM Amplex red as a fluorescent factor) was added and allowed to react at 37° C. for 30 minutes. After completion of the reaction, the cells were measured with a fluorometer at a wavelength of 560/590 nm (ex/em), thus quantifying the amount of triglyceride formed in the cells. A lower measurement value means an increased lipid production inhibitory ability.

Series [2] deals with HepG2 cells. The experiment in a line: Measurement of cholesterol synthesis ability (Amplex red fluorescence). Particulars: for activity at 100 µM / activity at 250 µM: Homo sapiens, HepG2 cells, 24 h treatment, lower is better, read-out: cholesterol synthesis ability, % control. It counts as cell-based.
From the text: as §1
as §2, with “model, HepG2 cells were used to measure cholesterol synthesis inhibitory ability, which is the important function of AMPK. The hepatic cell model” for “model,”, “(0.1 M” for “(0.1M”, “(2” for “(0.76”, “cholesterol oxidizing agent, 2” for “glycerol kinase, 151333”, “0.2” for “22.2”, “cholesterol esterase,” for “glycerol oxidizing agent,”

Series [3] deals with HepG2 cells. The experiment in a line: Measurement of gluconeogenesis (14C-lactate). It is filed as cell-based. The settings on record: Homo sapiens, 24 h treatment, lower is better, read-out: gluconeogenesis (glucose synthesis ability), % control. The protocol:
as §1
As a hepatic cell model, HepG2 cells were cultured in 10% serum-containing high glucose media, and then treated with each of the compounds for 24 hours. Then, the cells were treated with 0.5 uCi 14C-lactate and 10 mM L-lactate, and cultured for 4 hours. After cultivation, the media of the cells were removed, and the cells were washed with PBS, treated with 0.1N NaOH and left to stand at room temperature for 1 hour. Then, the cells were neutralized with 1N HCl, and the amount of glucose formed in the cells was measured with a liquid scintillation counter. […] A lower measurement value means a stronger blood glucose lowering activity.

A further series has as its system C2C12 cells. The experiment in a line: Measurement of glucose absorption (3H-deoxy-glucose). It counts as cell-based. The settings on record: for activity at 200 µM / activity at 250 µM / activity at 100 µM: Mus musculus, differentiated C2C12 muscle cells, with 1 μM insulin 24 h, higher is better, read-out: glucose absorption, % control; for effect of reducing insulin resistance, times better than the control group: absorption effect divided by average percent of control group (metformin 2 mM), multiplied by 20.
From the text: as §1
As a muscle cell model, C2C12 cells were induced to differentiate into muscle cells in 2% bovine fetal serum for 6 days. The C2C12 cells which differentiated into muscle cells were treated with each of the compounds in serum-free low glucose media, and then cultured with 1 μM of insulin for 24 hours. After cultivation, the cells were treated with 1 μCi 3H-deoxy-glucose and 10 μM deoxy-glucose at 37° C. for 15 minutes. After treatment, the media were removed, and the cells were washed twice with PBS. The washed cells were treated with 0.1 N NaOH and neutralized with 1N HCl. The amount of glucose absorbed into the cells was measured with a liquid scintillation counter. The effect of the compounds was determined by selecting a compound showing an absorption effect of at least 200%, dividing the absorption effect by the average percent of the control group, and then multiplying the divided value by […]. A higher measurement value means a stronger ability to reduce insulin resistance.

Molecules are shown by their SMILES.

The melting point is the temperature, or range, at which the solid turns liquid. Compound `CN(C)c1nc(N)nc(N)n1` [Example 11, N2,N2-dimethyl-1,3,5-triazine-2,4,6-triamine] gave a melting point of 271.8 to 272.8 °C. In the series with HepG2 cells [1], the activity at 100 µM came to 97.6%. Besides, the activity at 100 µM in the series on HepG2 cells [2] was 97.7%. Also, the activity at 200 µM in the series with HepG2 cells [3] was 70.4%. Besides, in the series on C2C12 cells, the activity at 200 µM came out at 106%.

Regarding `CN(C)c1nc(N)nc(NCCN2CCOCC2)n1` [Example 3, N2,N2-dimethyl-N4-(2-morpholinoethyl)-1,3,5-triazine-2,4,6-triamine], the melting point was in the range of 138.2 to 141.6 °C. Also, the activity at 250 µM in the series with HepG2 cells [1] stood at 98%. Also, the activity at 250 µM with HepG2 cells [2] was found to be 113%. Also, the activity at 500 µM in the series on HepG2 cells [3] worked out at 67.6%. The activity at 250 µM with C2C12 cells was found to be 132%.

The compound `CN(C)c1nc(N)nc(Nc2ccc3c(c2)-c2ccccc2C3)n1` [Example 25, N2-(9H-fluoren-3-yl)-N4,N4-dimethyl-1,3,5-triazine-2,4,6-triamine] gave a melting point of 282 to 290 °C. Further, the activity at 100 µM in the series with HepG2 cells [1] amounted to 30.2%. Moreover, the activity at 100 µM in the series on HepG2 cells [2] stood at 76.8%. In addition, the “effect on cholesterol synthesis, times better than the control group” value in the series with HepG2 cells [2] (by comparison of used amounts vs control group (metformin 2 mM)) is on record as “at least 20 times”. The activity at 100 µM in the series on HepG2 cells [3] is 49.5%. For the same compound, in the series on C2C12 cells, the activity at 100 µM amounted to 107%.

For the compound `COc1ccc(Nc2nc(N)nc(N(C)C)n2)cc1` [Example 15, N2,N2-dimethyl-N4-(4-methoxyphenyl)-1,3,5-triazine-2,4,6-triamine], the melting point lay in the range of 173 to 176 °C. Besides, the activity at 100 µM in the series with HepG2 cells [1] came to 53.6%. Besides, in the series with HepG2 cells [2], the activity at 100 µM was 57.1%. Also, the activity at 100 µM with HepG2 cells [3] amounted to 114%. Also, the activity at 100 µM with C2C12 cells came out at 91.1%.

In the case of `CCCc1ccccc1Nc1nc(N)nc(N(C)C)n1` [Example 26, N2,N2-dimethyl-N4-(2-propylphenyl)-1,3,5-triazine-2,4,6-triamine], the melting point was 130 to 145 °C. Further, in the series on HepG2 cells [1], the activity at 100 µM turned out to be 38.6%. Further, the activity at 100 µM in the series on HepG2 cells [2] was found to be 62.9%. In addition, in the series on HepG2 cells [3], the activity at 100 µM amounted to 24.7%. In addition, the activity at 100 µM in the series with C2C12 cells worked out at 170%.

`CN(C)c1nc(N)nc(NCc2ccco2)n1` [Example 5, N2-(furan-2-ylmethyl)-N4,N4-dimethyl-1,3,5-triazine-2,4,6-triamine] yielded a melting point of 151.6 to 152 °C. Besides, in the series with HepG2 cells [1], the activity at 250 µM was found to be 90.2%. In the series on HepG2 cells [2], the activity at 250 µM stood at 77.5%. Also, the activity at 500 µM in the series with HepG2 cells [3] turned out to be 68.5%. Further, in the series on C2C12 cells, the activity at 250 µM came to 142%.

As for `CN(C)c1nc(N)nc(N2CCN(c3ccc([N+](=O)[O-])cc3)CC2)n1` [Example 40, N2,N2-dimethyl-6-(4-(4-nitrophenyl)piperazin-1-yl)-1,3,5-triazine-2,4-diamine], the melting point fell in the range of 173 to 182 °C. Also, the activity at 100 µM with HepG2 cells [1] is 110%. In addition, the activity at 100 µM in the series on HepG2 cells [2] came out at 62.2%. The activity at 100 µM in the series on HepG2 cells [3] worked out at 39.8%. In the series on C2C12 cells, the activity at 100 µM is 245% and the “effect of reducing insulin resistance, times better than the control group” value is reported as “about 14 times”.

In the case of `CN(C)c1nc(N)nc(Nc2ccc(-c3ccccc3)cc2)n1` [Example 37, N2-(biphenyl-4-yl)-N4,N4-dimethyl-1,3,5-triazine-2,4,6-triamine], the melting point was 190 to 201 °C. Also, in the series with HepG2 cells [1], the activity at 100 µM is 80.6%. In addition, the activity at 100 µM with HepG2 cells [2] was determined as 66.8%. Besides, the activity at 100 µM in the series on HepG2 cells [3] stood at 85.7%. Also, the activity at 100 µM with C2C12 cells was found to be 151%.

On to `CN(C)c1nc(N)nc(NC2CCCCC2)n1` [Example 41, N2-cyclohexyl-N4,N4-dimethyl-1,3,5-triazine-2,4,6-triamine], for which the melting point was in the range of 119 to 120 °C. Besides, the activity at 100 µM with HepG2 cells [1] came out at 90.9%. Further, in the series with HepG2 cells [2], the activity at 100 µM came to 70.8%. In the series with HepG2 cells [3], the activity at 100 µM came out at 90.6%. In the series with C2C12 cells, the activity at 100 µM came out at 263% and the “effect of reducing insulin resistance, times better than the control group” value is recorded as “about 16 times”.

`Nc1nc(N)nc(NCCc2ccccc2)n1` [Example 13, N2-phenethyl-1,3,5-triazine-2,4,6-triamine]: the melting point lay within 169.9 to 171.8 °C. Moreover, the activity at 100 µM in the series with HepG2 cells [1] was determined as 103%. Moreover, in the series with HepG2 cells [2], the activity at 100 µM is 92.3%. Besides, in the series with HepG2 cells [3], the activity at 200 µM worked out at 99.6%. Further, the activity at 200 µM with C2C12 cells was found to be 115%.
